Values of other authors, collected in patent US5908764A, “Methods and compositions for increasing production of erythromycin” (Solidago AG, priority 1997, dated 1999).
pKd: −log10 of the molar value.

Columns and labels:
horse heart myoglobin = horse heart myoglobin (Equus caballus, UniProt P68082); details: oxygen affinity; Wittenberg et al., 1985
[1] = molecular target: Vitreoscilla hemoglobin (VHb) (Vitreoscilla stercoraria, UniProt P04252); details: koff rate for oxygen; Orii and Webster, 1986

Chain of horse heart myoglobin (P68082 whole entry): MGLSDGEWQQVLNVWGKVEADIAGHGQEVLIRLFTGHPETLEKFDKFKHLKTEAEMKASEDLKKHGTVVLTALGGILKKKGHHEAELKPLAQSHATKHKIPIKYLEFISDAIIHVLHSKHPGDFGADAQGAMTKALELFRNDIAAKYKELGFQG

In the case of `O=O` [oxygen], the pKd (horse heart myoglobin) is listed as 6.10 and the koff [1] is listed as 5600 s⁻¹.
